Measurements taken from patent US8957190B2, “Use of heat-resistant biotin-binding protein, and solid support having the protein attached thereto” (Japan Tobacco Inc., priority 2006, dated 2015).

Key:
salmon sperm DNA = assay: Test for non-specific binding to DNA (slot blot, antibody detection); conditions: 25 μg/mL protein, salmon sperm DNA 10 μg to 0.3 μg on membrane
Protocol: TM2 was analyzed for its non-specific binding to DNA. Serial dilutions of salmon sperm DNA (10 μg to 0.3 μg) in 2×SSC buffer were alkali-denatured and adsorbed onto a Hybond N+ membrane (Amersham Biosciences) using Bio-Dot SF (BIO-RAD). The membrane was blocked with 5×Denhardt's solution (0.1% BSA, 0.1% Ficoll, 0, 1% polyvinylpyrrolidone) and then immersed in a 25 μg/mL TM2, streptavidin or avidin solution at room temperature for 90 minutes. The membrane was then washed three times with TTBS buffer (TBS buffer containing 0.05% Tween 20) at room temperature for 5 minutes. The membrane was blocked with TBS buffer containing 0.5% skimmed milk and 0.01% Tween 20 for 1 hour. The primary antibodies used were rabbit anti-TM2 antibody (purified as described above) for TM2, rabbit anti-streptavidin antibody (SIGMA) for streptavidin, and rabbit anti-avidin antibody (Abcam) for avidin, which were diluted to give the same antibody titer before use. Antigen-antibody reaction with each primary antibody was performed overnight at room temperature. […] The membrane was washed three times with TTBS buffer at room temperature for 5 minutes, and then developed with an Alkaline Phosphatase substrate kit II, vector Black (Funakoshi Co., Ltd., Japan), followed by quantification with a Las-3000 system (FUJIFILM).

[1] = Heat resistance: fluorescent biotin-binding activity of heated biotin-binding proteins; conditions: for temperature which caused a 50% reduction in fluorescence intensity decrement compared to the unheated sample: free protein, heated 20 minutes; for reduction of binding activity to fluorescent biotin: 20 minutes
Protocol: Based on the property of fluorescent biotin to lose its fluorescence intensity when bound to a biotin-binding site in a biotin-binding protein, tamavidin 2 was compared with streptavidin and avidin for biotin-binding capacity under high temperature conditions.
About 0.25 μg/μL TM2 and streptavidin were heated at room temperature, 50° C., 60° C., 70° C., 80° C. or 90° C. for 20 minutes. Solutions were prepared to contain the heat-treated TM2 or streptavidin at stepwise concentrations from 0 μL to 27 μL in 150 μL assay buffer (50 mM NaH2PO4, 100 mM NaCl, 1 mM EDTA (pH 7.5)). These solutions were each mixed with 50 μL (250 pmol) of a 5 pmol/μL fluorescent biotin solution (biotin-4-fluorescein; Molecular Probe) and allowed to stand at room temperature for 20 minutes, followed by measuring the fluorescence intensity with a Las-3000 system (FUJIFILM).
Heat resistance test on the biotin-binding proteins was accomplished as follows. About 0.25 μg/μL biotin-binding protein was heated at room temperature, 50° C., 60° C., 70° C., 80° C. or 90° C. for 20 minutes. Solutions were prepared to contain the heated biotin-binding protein at stepwise concentrations from 0 μL to 12 μL in 150 μL assay buffer. These solutions were each mixed with 50 μL (100 pmol) of a 2 pmol/μL fluorescent biotin solution and allowed to stand at room temperature for 20 minutes, followed by measuring the fluorescence intensity at Ex=460 nm and Em=525 nm with an Infinite M200 (TECAN).

[2] = Heat resistance: protein stability (heating, SDS-PAGE band quantification); assay type: physicochemical; conditions: heated 20 minutes, soluble protein, SDS-PAGE, no biotin
Protocol: (§1) 0.2 μg/μL TM2 and 0.2 μg/μL streptavidin were heated in 10 μL (2 μg) volumes at room temperature, 50° C., 60° C., 70° C., 80° C., 90° C. or 99° C. for 20 minutes, followed by centrifugation at 15000 rpm for 10 minutes. Each supernatant (soluble protein) was suspended in an equal volume of 2×SDS sample buffer (100 mM Tris-HCl pH 6.8, 12% 2-mercaptoethanol, 2% SDS, 20% glycerol), heated at 95° C. for 10 minutes and then analyzed by SDS-PAGE. Protein bands were detected by CBB staining. Using a Las-3000 system (FUJIFILM), a calibration curve was prepared based on quantification markers (LMW ELECTROPHORESIS CALIBRATION KIT; Pharmacia Biotech) and used to quantify the protein bands. […]
as §1, with “Purified tamavidin 1 at a concentration of 0.2” for “0.2”, “was” for “TM2 and 0.2 μg/μL streptavidin were”

[3] = Activity measurement by means of fluorescent biotin (method of Kada et al.); assay type: binding; conditions: room temperature, 10 minutes
Protocol: By means of fluorescent biotin, tamavidin 2 was measured for its biotin-binding activity according to the method of Kada et al. (Biochim. Biophys. Acta., 1427: 44-48, (1999)). Solutions were prepared to contain the purified TM2 at stepwise concentrations from 0 pmol to 486 pmol in 200 μl assay buffer (50 mM NaH2PO4, 100 mM NaCl, 1 mM EDTA (pH 7.5)). These solutions were each mixed with 50 μL (1 nmol) of a 20 pmol/μL fluorescent biotin solution (biotin-4-fluorescein; Molecular Probe) and allowed to stand at room temperature for 10 minutes, followed by measuring the fluorescence intensity with a Las-3000 system (FUJIFILM). As a result, 0.274 nmol of TM2 was bound to nmol of fluorescent biotin. Namely, 3.6 mol of fluorescent biotin was bound to 1 mol of tamavidin. […] In the case of streptavidin, 3.4 mol of fluorescent biotin was bound per mol of streptavidin.

[4] = background art; cited from earlier work
[5] = Kinetic analysis of tamavidin 2-biotin interaction using a Biacore 3000 biosensor (surface plasmon resonance); assay type: binding; conditions: Biacore 3000, 25° C.
Protocol: Kinetic Analysis of Tamavidin 2 (TM2)-Biotin Interaction Using a Biacore Biosensor
Highly-purified BSA (2 mg, Sigma) and NHS-biotin (1 mg, Pierce) were dissolved in 1 ml of 50 mM sodium borate pH 8.0 and incubated at 4° C. for 2 hours. The NHS-biotin (EZ-Link NHS-LC-LC-Biotin) had been dissolved in a small volume of DMSO before addition. This solution was introduced into a dialysis tube (MWCO 6-8,000) and dialyzed overnight at 4° C. against 50 mM sodium carbonate pH 6.7. The biotin-BSA conjugate thus prepared (MW 67 kDa, 30 μM) was used as a ligand (a substance immobilized on a sensor chip) for a Biacore® biosensor. On the other hand, recombinant tamavidin 2 was prepared as an analyte (a substance flowing through channels) and analyzed for intermolecular interactions using a Biacore® 3000 (a biosensor designed on the principle of surface plasmon resonance, Biacore Inc.). Biotin-BSA and BSA alone (serving as a negative control) were each immobilized on CM5 sensor chips by amine coupling techniques. Their immobilized amount was adjusted to around 200 RU. BSA-immobilized chips were placed in flow cells 1 and 3, while biotin-BSA-immobilized chips were placed in flow cells 2 and 4. Tamavidin 2 was loaded into flow cells 1 and 2, while streptavidin was loaded into flow cells 3 and 4, each being loaded at a flow rate of 20 μl/min for 2 minutes in running buffer [10 mM HEPES pH 7.4, 150 mM NaCl, 3 mM EDTA, 0.005% Surfactant 20 (Biacore Inc.)]. The samples were then monitored for their dissociation over 60 minutes. […] The dissociation constant (Kd) was determined from kd/ka.
It should be noted that when the regeneration step was skipped, Rmax (the maximum binding amount of an analyte) was reduced ever time the measurement at each concentration was made. For this reason, Rmax was calculated by local fitting for each concentration during analysis. […]

[6] = 1:1 binding model, biotin-BSA ligand

| reduction of binding activity to fluorescent biotin ([1]; heated at 70° C.) [%] | reduction of binding activity to fluorescent biotin ([1]; heated at 80° C.) [%] | Dissociation rate constant kd [5, 6] [s⁻¹] | Kd ([5]; determined from kd/ka, read-out: Dissociation constant Kd) [pM] | Substance | non-specific binding to DNA (staining intensity versus DNA concentration) (salmon sperm DNA) | temperature which caused a 50% reduction in fluorescence intensity decrement compared to the unheated sample [1] [°C] | temperature which caused a 50% reduction in protein band intensity [2] [°C] | fluorescent biotin bound per mol of protein [3] [mol] | isoelectric point [4] | Association rate constant ks [5, 6] [M⁻¹ s⁻¹] |
| --- | --- | --- | --- | --- | --- | --- | --- | --- | --- | --- |
| 40 | 80 | 2.52e-06 | 1.11 | Streptavidin: biotin-binding protein derived from an actinomycete strain (Streptomyces avidinii) [reference compound] | not strongly affected by DNA concentration | 73 | 71 | 3.4 | around neutral pH | 2.28e+06 |
| 10 | 70 | – | – | avidin: albumen-derived basic glycoprotein binding biotin | DNA concentration-dependent increase in its staining intensity | 78 | – | – | exceeding 10 | – |
